Results from PMC12469269, “Investigating SMR Peptide Interactions with Breast Cancer-Associated Proteins” (International Journal of Molecular Sciences, 2025).
Entries after “also recorded” stand apart in the source; their conditions may differ.

Key:
Vimentin = test: SPR competition: SMRwt binding to immobilized Vimentin with Mortalin peptides; parameters: species or system Human; details: 20 µM SMRwt + 20 µM Mortalin peptide, 25 °C, HBS-P pH 7.4
Protocol: (§1) Both Vimentin and Mortalin were immobilized as ligands. We used 20 µM of SMRwt alone and 20 µM of Mortalin peptides alone, and their mixtures were used as analytes.
(§2) Figure 9 Competitive binding of SMR and Mortalin peptides to Vimentin and Mortalin proteins. Binding of SMRwt to immobilized Vimentin in the presence and absence of (A) Mortalin peptide #56, (B) Mortalin peptide #61, and (C) Mortalin peptide #62. Binding of SMRwt to immobilized Mortalin in the presence and absence of (D) Mortalin peptide #56, (E) Mortalin peptide #61, and (F) Mortalin peptide #62. SMRwt alone, as well as a mixture of His-tagged Mortalin peptides #56, #61, and #62 were injected as analytes to flow over the immobilized ligand surfaces. […] Vimentin and Mortalin proteins were immobilized as ligands on a CM5 sensor chip using standard amine coupling chemistry.
(§3) SPR experiments were conducted using a Biacore T200 instrument (Cytiva, Marlborough, MA, USA). CM5 sensor chips (Cytiva) were used to immobilize proteins and run subsequent binding assays at 25 °C. To investigate the direct binding of Nef and SMR peptides to Vimentin and Mortalin and SMR competition studies, both proteins were immobilized as ligands on the active flow cells (FCs) using standard amine coupling chemistry. […] Sensorgrams recorded for kinetics analyses were fitted to a 1:1 binding model using the Biacore T200 evaluation software version 3.2.1. […]

Mortalin = test: SPR competition: SMRwt binding to immobilized Mortalin with Mortalin peptides; parameters: species or system Human; details: 20 µM SMRwt + 20 µM Mortalin peptide, 25 °C, HBS-P pH 7.4
Protocol: as §1, §2, §3

Mortalin (Grp-75) = test: Co-immunoprecipitation / Western blot, Mortalin; format: binding, human; details: MDA-MB-231, MCF-7, BT474 lysates; anti-FLAG M2 resin, 4 °C overnight
Protocol: MDA-MB-231, MCF-7, and BT474 BC cells were grown in RPMI 1640 medium containing 10% FBS at 37 °C in a T-75 tissue culture flask and collected via centrifugation at 1000× g for 20 min at 4 °C. The cell pellet was resuspended in 1 mL of 1X PBS and transferred to a 1.5 mL Eppendorf tube. Following microcentrifugation at 1000× g for 1 min, the pellet was resuspended in 1 mL of α-FLAG Lysis buffer through gentle pipetting (50 mM Tris HCl, pH 7.4; 150 mM sodium chloride [NaCl]; 1 mM EDTA; and 1% Triton X-100, with 1 mM phenylmethyl sulfonyl fluoride [PMSF] and 10 µL/mL Protease Inhibitor Cocktail with mammalian cell and tissue extracts [PIC; Sigma-Aldrich] added immediately before use). The suspension was differentially microcentrifuged at 2000× g for 5 min and at 13,000× g for 10 min to pellet the cell debris and DNA, respectively, and the supernatant (hereafter referred to as the Lysate) was collected. In total, 1 milligram of Lysate protein and 1 milligram of the SMRwt or SMRmut peptide were added to 20 µL of Anti-FLAG® M2 Affinity Gel (resin; Sigma). […]
Cell proteins were analyzed using Western blot analysis, as described previously. […] Protein bands were detected using Western blotting Luminol Reagent (Santa Cruz Biotechnology, Inc., Santa Cruz, CA, USA). […]

## DQLPADECNKLKEEISKMRE [#61, Mortalin scanning peptide 61]
Vimentin; listed as Mortalin #61
  inhibition of SMRwt–Vimentin binding, in words: effectively compete with SMRwt to block its interaction with the Mortalin or Vimentin protein
Vimentin; listed as Mortalin peptide #61
  inhibition of SMRwt–Vimentin binding, in words: inhibited SMRwt binding to both Mortalin and Vimentin; also recorded: completely blocks the 20 µM SMRwt from binding to both Vimentin and Mortalin; also recorded: completely inhibited complex formation between SMRwt and Vimentin
Mortalin; listed as Mortalin #61
  inhibition of SMRwt–Mortalin binding, in words: effectively compete with SMRwt to block its interaction with the Mortalin or Vimentin protein
Mortalin; listed as Mortalin peptide #61
  inhibition of SMRwt–Mortalin binding, in words: inhibited SMRwt binding to both Mortalin and Vimentin; also recorded: completely blocks the 20 µM SMRwt from binding to both Vimentin and Mortalin; also recorded: complete inhibition

## ^66Ala-Gly-Phe-Pro-Val^70 [SMRmut, 5-mer negative control, Val66 changed to Ala]
Mortalin (Grp-75)
  co-immunoprecipitation with Mortalin, in words: not SMRmut, co-immunoprecipitated with Mortalin
